US11319376B2, “Combination of glucagon receptor antagonists and PI3K pathway inhibitors for the treatment of cancer” (REMD Biotherapeutics, Inc., priority 2016, dated 2022)

Tests used:
[1] = test system: cancer patient of diverse malignancies; conditions: cancer patients; cited from earlier work
C57BL/6 mice = assay: Effect of REMD2.59c pretreatment on induction of hyperglycemia by PI3K/Akt pathway inhibitors in C57BL/6 fed mice; assay type: in vivo, mouse; conditions: fed blood glucose, −24 h pretreatment ASN vehicle or REMD2.59c 7 mg/kg i.p., mean ± sd, n=3; for 2 h Glucose: 2 h after single p.o. dose (BYL719 50, BKM120 50, GDC-0980 10, MK2206 150, GSK690693 30, GDC-0068 10 or 100, OSI-906 100 mg/kg); for 4 h Glucose: 4 h after single p.o. dose (same doses as 2 h)
ATR = ATR (Homo sapiens, UniProt Q13535); conditions: read-out: Target Selectivity (IC50) ATR; cited from earlier work
Chain of ATR (Q13535 whole entry): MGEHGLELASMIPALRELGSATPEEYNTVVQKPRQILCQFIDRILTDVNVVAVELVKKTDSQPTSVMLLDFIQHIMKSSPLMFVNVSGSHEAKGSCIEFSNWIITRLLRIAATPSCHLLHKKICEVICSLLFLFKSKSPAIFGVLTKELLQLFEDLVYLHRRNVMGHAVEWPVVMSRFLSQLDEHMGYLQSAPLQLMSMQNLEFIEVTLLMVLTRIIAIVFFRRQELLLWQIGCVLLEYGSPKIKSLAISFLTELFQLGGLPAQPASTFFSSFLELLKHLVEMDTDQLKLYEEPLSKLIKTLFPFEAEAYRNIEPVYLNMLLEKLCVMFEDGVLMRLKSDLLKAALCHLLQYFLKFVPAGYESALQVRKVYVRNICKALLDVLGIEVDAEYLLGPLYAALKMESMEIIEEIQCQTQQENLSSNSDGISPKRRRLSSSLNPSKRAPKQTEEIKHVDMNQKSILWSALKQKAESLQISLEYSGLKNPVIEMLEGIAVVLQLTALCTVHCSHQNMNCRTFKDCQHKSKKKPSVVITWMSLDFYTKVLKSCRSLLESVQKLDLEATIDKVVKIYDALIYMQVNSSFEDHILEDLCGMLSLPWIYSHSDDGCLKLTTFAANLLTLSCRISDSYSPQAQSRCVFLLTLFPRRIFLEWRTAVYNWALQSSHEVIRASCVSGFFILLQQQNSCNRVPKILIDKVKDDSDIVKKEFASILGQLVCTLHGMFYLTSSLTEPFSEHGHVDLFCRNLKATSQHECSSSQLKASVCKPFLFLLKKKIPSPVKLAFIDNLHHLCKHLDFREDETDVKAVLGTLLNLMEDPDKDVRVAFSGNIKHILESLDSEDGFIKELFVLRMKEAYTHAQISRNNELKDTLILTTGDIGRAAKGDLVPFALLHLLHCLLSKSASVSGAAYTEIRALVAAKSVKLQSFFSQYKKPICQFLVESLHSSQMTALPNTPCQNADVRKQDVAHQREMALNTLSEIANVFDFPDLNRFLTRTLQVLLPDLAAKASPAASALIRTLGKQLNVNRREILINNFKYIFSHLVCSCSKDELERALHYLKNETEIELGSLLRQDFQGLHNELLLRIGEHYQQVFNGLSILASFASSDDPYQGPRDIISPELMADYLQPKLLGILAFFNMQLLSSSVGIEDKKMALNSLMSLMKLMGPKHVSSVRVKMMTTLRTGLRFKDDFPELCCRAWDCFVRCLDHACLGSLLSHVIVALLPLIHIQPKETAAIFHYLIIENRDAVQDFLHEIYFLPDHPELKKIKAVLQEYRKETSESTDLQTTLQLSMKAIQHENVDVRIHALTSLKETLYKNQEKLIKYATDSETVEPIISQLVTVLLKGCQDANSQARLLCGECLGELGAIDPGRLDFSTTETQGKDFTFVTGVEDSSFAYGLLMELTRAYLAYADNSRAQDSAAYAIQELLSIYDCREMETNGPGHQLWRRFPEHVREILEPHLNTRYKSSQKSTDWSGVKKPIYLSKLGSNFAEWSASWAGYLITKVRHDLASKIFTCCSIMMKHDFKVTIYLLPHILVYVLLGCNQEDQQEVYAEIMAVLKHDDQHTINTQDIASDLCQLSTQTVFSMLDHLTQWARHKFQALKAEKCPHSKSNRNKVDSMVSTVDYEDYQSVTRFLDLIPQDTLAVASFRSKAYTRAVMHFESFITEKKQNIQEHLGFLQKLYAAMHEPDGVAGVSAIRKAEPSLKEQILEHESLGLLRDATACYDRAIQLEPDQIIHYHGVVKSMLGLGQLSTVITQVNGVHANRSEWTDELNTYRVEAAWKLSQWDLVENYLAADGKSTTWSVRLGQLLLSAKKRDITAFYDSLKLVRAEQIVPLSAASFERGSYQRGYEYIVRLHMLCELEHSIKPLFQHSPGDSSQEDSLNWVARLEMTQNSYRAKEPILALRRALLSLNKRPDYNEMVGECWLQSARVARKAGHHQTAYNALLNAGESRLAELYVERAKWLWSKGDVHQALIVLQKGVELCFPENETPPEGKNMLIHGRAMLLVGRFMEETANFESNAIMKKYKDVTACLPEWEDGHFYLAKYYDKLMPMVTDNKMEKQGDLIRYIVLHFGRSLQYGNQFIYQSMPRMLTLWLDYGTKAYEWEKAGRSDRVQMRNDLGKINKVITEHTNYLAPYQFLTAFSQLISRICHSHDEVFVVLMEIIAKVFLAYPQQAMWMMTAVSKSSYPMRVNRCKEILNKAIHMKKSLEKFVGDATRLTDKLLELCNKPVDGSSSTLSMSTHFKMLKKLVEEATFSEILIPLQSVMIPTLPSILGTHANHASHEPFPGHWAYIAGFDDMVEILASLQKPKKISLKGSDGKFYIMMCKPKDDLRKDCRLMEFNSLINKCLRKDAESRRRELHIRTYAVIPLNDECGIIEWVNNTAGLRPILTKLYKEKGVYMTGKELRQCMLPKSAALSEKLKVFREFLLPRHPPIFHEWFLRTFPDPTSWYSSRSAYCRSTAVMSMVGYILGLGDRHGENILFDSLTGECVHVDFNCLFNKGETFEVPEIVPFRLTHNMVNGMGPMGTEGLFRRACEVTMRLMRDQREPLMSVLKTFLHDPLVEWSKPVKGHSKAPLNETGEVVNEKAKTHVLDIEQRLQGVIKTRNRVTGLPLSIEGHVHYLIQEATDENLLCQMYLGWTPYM
Chain of ATR (Q8WXE1 whole entry partner): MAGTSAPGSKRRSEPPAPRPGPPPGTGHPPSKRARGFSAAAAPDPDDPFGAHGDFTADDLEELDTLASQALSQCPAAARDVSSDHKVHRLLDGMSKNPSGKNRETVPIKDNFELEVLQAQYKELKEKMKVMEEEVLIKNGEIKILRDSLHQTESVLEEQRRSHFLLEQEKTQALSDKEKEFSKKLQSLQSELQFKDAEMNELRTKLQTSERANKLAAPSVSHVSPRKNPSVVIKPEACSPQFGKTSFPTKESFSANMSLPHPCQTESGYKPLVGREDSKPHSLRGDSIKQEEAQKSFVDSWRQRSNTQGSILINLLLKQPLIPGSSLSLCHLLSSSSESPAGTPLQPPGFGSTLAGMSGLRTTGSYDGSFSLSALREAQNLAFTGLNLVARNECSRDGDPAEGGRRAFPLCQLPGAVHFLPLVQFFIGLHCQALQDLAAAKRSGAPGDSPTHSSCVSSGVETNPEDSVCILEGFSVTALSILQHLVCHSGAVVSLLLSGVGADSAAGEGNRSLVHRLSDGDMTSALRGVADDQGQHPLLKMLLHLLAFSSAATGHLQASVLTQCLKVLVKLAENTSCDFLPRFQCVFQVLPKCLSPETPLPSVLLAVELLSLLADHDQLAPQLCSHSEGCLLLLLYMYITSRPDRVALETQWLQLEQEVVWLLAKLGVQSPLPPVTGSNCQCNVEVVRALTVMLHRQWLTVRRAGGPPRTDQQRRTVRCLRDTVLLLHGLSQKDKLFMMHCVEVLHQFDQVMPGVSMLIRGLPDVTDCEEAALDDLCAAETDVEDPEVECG

CSF1R = CSF1R (Homo sapiens, UniProt P07333); conditions: read-out: Target Selectivity (IC50) CSF1R; cited from earlier work
Chain of CSF1R (P07333 20-972, species assumed): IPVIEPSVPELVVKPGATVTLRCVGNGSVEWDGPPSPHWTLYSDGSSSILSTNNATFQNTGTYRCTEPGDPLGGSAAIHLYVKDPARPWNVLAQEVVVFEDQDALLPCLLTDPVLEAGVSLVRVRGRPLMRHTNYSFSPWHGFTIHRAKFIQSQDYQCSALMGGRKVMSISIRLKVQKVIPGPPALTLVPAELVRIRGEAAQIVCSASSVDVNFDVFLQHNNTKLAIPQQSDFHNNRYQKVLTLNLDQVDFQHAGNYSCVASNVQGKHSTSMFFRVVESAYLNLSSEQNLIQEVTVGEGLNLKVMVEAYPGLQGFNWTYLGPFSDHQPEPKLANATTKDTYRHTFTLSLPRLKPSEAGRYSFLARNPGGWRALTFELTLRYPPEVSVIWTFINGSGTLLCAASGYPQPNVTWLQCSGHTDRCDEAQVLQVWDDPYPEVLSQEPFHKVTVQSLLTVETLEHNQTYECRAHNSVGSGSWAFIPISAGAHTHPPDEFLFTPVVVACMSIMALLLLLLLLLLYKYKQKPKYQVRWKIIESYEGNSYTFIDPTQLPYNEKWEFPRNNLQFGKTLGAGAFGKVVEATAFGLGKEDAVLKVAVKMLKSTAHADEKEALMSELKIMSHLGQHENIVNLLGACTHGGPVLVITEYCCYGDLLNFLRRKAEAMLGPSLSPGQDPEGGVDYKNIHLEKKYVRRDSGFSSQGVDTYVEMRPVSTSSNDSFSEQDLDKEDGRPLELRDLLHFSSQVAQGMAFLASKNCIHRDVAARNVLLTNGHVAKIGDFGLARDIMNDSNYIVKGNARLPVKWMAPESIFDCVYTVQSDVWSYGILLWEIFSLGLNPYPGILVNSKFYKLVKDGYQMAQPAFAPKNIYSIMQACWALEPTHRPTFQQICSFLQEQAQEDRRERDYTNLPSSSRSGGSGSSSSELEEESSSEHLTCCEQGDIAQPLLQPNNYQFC

DNAPK = DNAPK (Homo sapiens, UniProt P78527); conditions: read-out: Target Selectivity (IC50) DNAPK; cited from earlier work
VPS34 = VPS34 (Homo sapiens, UniProt Q8NEB9); conditions: read-out: Target Selectivity (IC50) VPS34; cited from earlier work
mTOR = mTOR (Homo sapiens, UniProt P42345); conditions: read-out: Target Selectivity (IC50) mTOR; cited from earlier work
PI4Kβ = PI4Kβ (Homo sapiens, UniProt Q9UBF8); conditions: read-out: Target Selectivity (IC50) PI4Kβ; cited from earlier work
p70S6K = p70S6K (Homo sapiens, UniProt P23443); conditions: read-out: Target Selectivity (IC50) p70S6K; cited from earlier work
Chain of p70S6K (P23443 whole entry): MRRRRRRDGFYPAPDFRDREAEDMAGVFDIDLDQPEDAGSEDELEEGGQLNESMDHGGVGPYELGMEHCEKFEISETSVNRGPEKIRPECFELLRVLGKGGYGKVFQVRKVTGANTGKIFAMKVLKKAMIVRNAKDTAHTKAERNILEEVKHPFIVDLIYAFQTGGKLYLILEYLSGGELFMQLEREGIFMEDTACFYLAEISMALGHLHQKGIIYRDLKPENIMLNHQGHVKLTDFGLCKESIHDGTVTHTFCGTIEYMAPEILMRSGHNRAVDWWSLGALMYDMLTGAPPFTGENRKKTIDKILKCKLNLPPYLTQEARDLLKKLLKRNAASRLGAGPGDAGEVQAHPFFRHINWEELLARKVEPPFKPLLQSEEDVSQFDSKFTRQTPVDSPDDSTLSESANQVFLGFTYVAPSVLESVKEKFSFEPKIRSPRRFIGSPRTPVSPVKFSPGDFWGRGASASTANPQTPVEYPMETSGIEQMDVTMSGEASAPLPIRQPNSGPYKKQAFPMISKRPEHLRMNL

CD-17 scid mice = conditions: cited from earlier work; for effect on GSK690693-induced hyperglycemia: CD-17 scid mice
BALB/c athymic nude mice = assay: Glucose and insulin response to MK2206 with/without REMD2.59c pretreatment in BALB/c athymic nude mice (MiaPaCa2 tumor bearing or naive); assay type: in vivo, mouse; conditions: for −0.5 h Glucose: 0.5 h before MK2206 dosing
[2] = test system: patients with type 1 diabetes; conditions: single dose 70 mg subcutaneous; cited from earlier work

## Nc1cc(C(F)(F)F)c(-c2cc(N3CCOCC3)nc(N3CCOCC3)n2)cn1 [BKM120, buparlisib]
[1]
  efficacy in Phase I/II clinical trials: minimal
  hyperglycemia and hyperinsulinemia in Phase I/II clinical trials: consistently observed
C57BL/6 mice
  2 h Glucose: 15.7 ± 2.5 mM
  4 h Glucose: 9.1 ± 1.3 mM
ATR
  IC50: 8.09 µM
CSF1R
  IC50: 0.582 µM

## Cc1nc(NC(=O)N2CCC[C@H]2C(N)=O)sc1-c1ccnc(C(C)(C)C(F)(F)F)c1 [BYL719, alpelisib]
[1]
  efficacy in Phase I/II clinical trials: minimal
  hyperglycemia and hyperinsulinemia in Phase I/II clinical trials: consistently observed
DNAPK
  IC50: 9.1 µM
C57BL/6 mice
  2 h Glucose: 17.4 ± 1.4 mM
  4 h Glucose: 11.9 ± 3.3 mM
ATR
  IC50: 15 µM
VPS34
  IC50: 9.1 µM
mTOR
  IC50: 9.1 µM
PI4Kβ
  IC50: 0.581 µM

## CC(C)NC[C@@H](C(=O)N1CCN(c2ncnc3c2[C@H](C)C[C@H]3O)CC1)c1ccc(Cl)cc1 [GDC-0068, ipatasertib]
p70S6K
  IC50: 0.862 µM
C57BL/6 mice
  2 h Glucose: 28.4 ± 2.0 mM
  4 h Glucose: 25.9 ± 1.2 mM

## Cc1c(CN2CCN(C(=O)[C@H](C)O)CC2)sc2c(N3CCOCC3)nc(-c3cnc(N)nc3)nc12 [GDC-0980, apitolisib]
C57BL/6 mice
  2 h Glucose: 27.0 ± 1.8 mM
  4 h Glucose: 20.5 ± 0.9 mM

## CCn1c(-c2nonc2N)nc2c(C#CC(C)(C)O)ncc(OC[C@H]3CCCNC3)c21 [GSK690693]
C57BL/6 mice
  2 h Glucose: 27.1 ± 2.6 mM
  4 h Glucose: 21.2 ± 1.5 mM
CD-17 scid mice; mouse, in vivo
  induction of hyperglycemia: potently induces

## NC1(c2ccc(-c3nc4ccn5c(=O)[nH]nc5c4cc3-c3ccccc3)cc2)CCC1 [MK2206]
[1]
  efficacy in Phase I/II clinical trials: minimal
  hyperglycemia and hyperinsulinemia in Phase I/II clinical trials: consistently observed
C57BL/6 mice
  2 h Glucose: 20.1 ± 0.8 mM
  4 h Glucose: 9.6 ± 1.3 mM
BALB/c athymic nude mice; BALB/c nude mice, MK2206 150 mg/kg p.o.
  glucose levels after 2 h treatment: not increased
BALB/c athymic nude mice; BALB/c nude tumor bearing mice, MK2206 150 mg/kg p.o., statistically significant
  increase in serum insulin after 2 h treatment: 65.5 fold
BALB/c athymic nude mice; Table 4 (glucose table), MiaPaCa2 tumor bearing BALB/c nude mice, 4 h after MK2206 150 mg/kg p.o.
  4 h Insulin: 4.9 ± 0.8 ng/mL
BALB/c athymic nude mice; Table 4 (glucose table), naive (tumor-free) BALB/c nude mice, 4 h after MK2206 150 mg/kg
  4 h Insulin: 5.7 ± 1.0 ng/mL
BALB/c athymic nude mice; Table 4, MiaPaCa2 tumor bearing BALB/c nude mice, 24 h after ASN or REMD2.59c, mean ± sd, n=3
  −0.5 h Glucose: 5.6 ± 0.8 mM
BALB/c athymic nude mice; Table 4, MiaPaCa2 tumor bearing BALB/c nude mice, 2 h after MK2206 150 mg/kg p.o.
  2 h Glucose: 5.5 ± 1.0 mM
BALB/c athymic nude mice; Table 4, naive (tumor-free) BALB/c nude mice, no pretreatment
  −0.5 h Glucose: 5.7 ± 0.9 mM
BALB/c athymic nude mice; Table 4, naive (tumor-free) BALB/c nude mice, 2 h after MK2206 150 mg/kg
  2 h Glucose: 5.8 ± 0.5 mM
BALB/c athymic nude mice; Table 5 (insulin table), MiaPaCa2 tumor bearing BALB/c nude mice, 2 h after MK2206 150 mg/kg p.o.
  2 h Glucose: 26.2 ± 19.4 mM
BALB/c athymic nude mice; Table 5, MiaPaCa2 tumor bearing BALB/c nude mice, 4 h after MK2206 150 mg/kg p.o.
  4 h Insulin: 7.1 ± 2.1 ng/mL

## C[C@]1(O)C[C@@H](c2nc(-c3ccc4ccc(-c5ccccc5)nc4c3)c3c(N)nccn32)C1 [OSI-906, linsitinib]
C57BL/6 mice
  2 h Glucose: 29.3 ± 1.7 mM
  4 h Glucose: 23.4 ± 1.5 mM

## CN(C)C(=N)N=C(N)N [metformin]
CD-17 scid mice
  effect on GSK690693-induced hyperglycemia: not prevented or reduce

## N#C[C@@H]1CCCN1C(=O)CNC12CC3CC(CC(O)(C3)C1)C2 [vildagliptin]
CD-17 scid mice
  effect on GSK690693-induced hyperglycemia: not prevented or reduce

## Exendin-4
CD-17 scid mice
  effect on GSK690693-induced hyperglycemia: not prevented or reduce

## REMD-477: fully human anti-GCGR monoclonal antibody, heavy chain SEQ ID NO: 49 and light chain SEQ ID NO: 50
[2]
  amount of insulin needed: substantially reduce
  glucose levels: improve
  hypoglycemia (low blood glucose levels): without increasing
